How the values were obtained:
[1] = human
From the text: An inhouse physiologically based pharmacokinetic (PBPK) simulation program has been established. It supports one, two and multi-compartment models. The compartmental model program was designed using Matlab and Simulink to emulate human physiological conditions. With appropriate human physiological parameter input, absorption, distribution, metabolism and excretion profiles of compounds of interest can be estimated in human.
The parameter used for the evaluation is maximum exposure index (MEI), a product of AUC and the highest percentage recorded for Cannabis.

HepG2 cells [2] = assay: rtPCR TaqMan array of cancer pathway genes in treated HepG2 cells; assay type: cell-based, human; conditions: 6 h; CBD 17, CBC 23, CBN 20, 1:1:1 17, sorafenib 12 μg/ml
Procedure: rt-PCR: Target cancer gene pathways will be analyzed using a custom Taqman array card exploring 91 unique genes involved with a few cancer pathways.
Two million HepG2 cells in IMDM media with 20% FBS, and 1% ethanol were seeded in T75 flasks and incubated at 37° C., 7.5% CO2 until 70-80% confluent (approx. […]). The media were replenished with media containing individual cannabinoids (CBD 17 μg/ml, CBC 23 μg/ml, CBN 20 μg/ml) and cannabinoid mixture of CBD:CBC:CBN of 1:1:1 (17 μg/ml) and incubated for 6 hours prior to harvest. […] Untreated cells were included as a negative control Glyceraldehyde-3-phosphate dehydrogenase (GAPDH) was included as an endogenous control and used for normalization of the data.
RNA was extracted using Invitrogen's Dynabead mRNA DIRECT kit using the recommended protocol to provide 50 μL of a purified mRNA solution. […] of RT master mix was mixed into the mRNA solution and the mixture left to react at 37° C. for 60 minutes. Reverse transcriptase inactivation was performed at 95° C. for 5 minutes and the resulting cDNA samples were kept at 4° C. until use. Fifty-five microliters of TaqMan Fast Advance master mix were added to an equal amount of cDNA sample containing 1 μg/100 μl of cDNA, which was loaded into each card reservoir. The cards were centrifuged twice at 1200 RPM for 3 minutes in a Legend XFR centrifuge and the rtPCR reaction was conducted in a QuantStudio7 PCR instrument using the standard settings with 40 amplification cycles.
Assessment of cancer gene pathways were carried out using custom designed TaqMan array cards exploring 86 genes linked to numerous cancer related pathways. […] In addition to individual pathways, genes linked to specific cellular processes were also explored.

HepG2 cells [3] = assay: In-cell Western-blot protein expression in treated HepG2 cells; assay type: cell-based, human; conditions: six hour treatment; CBD 17, CBC 23, CBN 20, Sorafenib 12, SCI-111 17, SCI-521 17 μg/ml
Procedure: In-cell Western-blot analysis: Protein expression was assessed by seeding 1000 HepG2 cells/well from cyro frozen stocks into 384 well optical bottom black culture plates from Thermo-Scientific (item 142761) in IMDM media with 20% FBS and 1% ethanol. […] After a six hour treatment, the cells were fixated with 4% formaldehyde for 15 minutes, permeated with 0.1% triton-x100 for 10 minutes, and left in blocking buffer (phosphate buffered saline (PBS) with 3% bovine serum albumin (BSA)) overnight at 4 degrees Celsius. The following day, the cells were rinsed with PBS, incubated with 25 μl PBS containing primary antibody (Table 1) for 3 hours at 25° C. Subsequently, the primary antibody was removed, cells were rinsed twice with PBS, and incubated with 25 μl of PBS containing the secondary antibody (Rabbit: Alexa Fluor 790 donkey anti-rabbit IgG (H+L) Lot 2409042; Mouse: Alexa Fluor 790 donkey anti-mouse IgG (H+L) Lot 2300923) at a concentration of 1:2000. Draq5 (1:2000) was added for normalization of data. After an hour incubation in the secondary antibody, the cells were rinsed with PBS and readings at 700 and 800 nm were acquired on a Licor Odyssey fluorescence imager with a resolution of 21 μm. Analysis was subsequently performed with Empiria Studio 2.1. A total of 5 samples were collected per antibody and the sample size was reduced to 3 for the statistical analysis.

[4] = known human values; cited from earlier work

## CC1(C)C2CCC1(C)C(O)C2 (centres unmarked) [Borneol]
[1]
  MEI, AUC* % mass: 0.10

## CCCCCc1cc(O)c2c(c1)OC(C)(CCC=C(C)C)C=C2 (centres unmarked) [CBC, Cannabichromene]
HepG2 cells [2]
  rtPCR Log2 fold change relative to untreated cells, AKT1 (PI3K/AKT/MTOR): −1.915 Log2 fold change
  rtPCR Log2 fold change relative to untreated cells, APFAF1 (Apoptosis): −1.945 Log2 fold change
  rtPCR Log2 fold change relative to untreated cells, BAD (Apoptosis): −2.917 Log2 fold change
  rtPCR Log2 fold change relative to untreated cells, BAX (Apoptosis): −2.332 Log2 fold change
  rtPCR Log2 fold change relative to untreated cells, BCL2 (Apoptosis): 3.95 Log2 fold change
  rtPCR Log2 fold change relative to untreated cells, BCL2L1 (Apoptosis): −1.241 Log2 fold change
  rtPCR Log2 fold change relative to untreated cells, CAMK1 (Ca signaling): −2.15 Log2 fold change
  rtPCR Log2 fold change relative to untreated cells, CCND1 (Cell Cycle Arrest): −1.206 Log2 fold change
  rtPCR Log2 fold change relative to untreated cells, CDK1 (Cell Cycle Arrest): −1.725 Log2 fold change
  rtPCR Log2 fold change relative to untreated cells, CDK2 (Cell Cycle Arrest): −1.316 Log2 fold change
  rtPCR Log2 fold change relative to untreated cells, CDK4 (Cell Cycle Arrest): −1.914 Log2 fold change
  rtPCR Log2 fold change relative to untreated cells, CDK6 (Cell Cycle Arrest): −1.735 Log2 fold change
  rtPCR Log2 fold change relative to untreated cells, CRK - p38 (Cellular Adhesion): −1.414 Log2 fold change
  rtPCR Log2 fold change relative to untreated cells, CTNNB1 (Cellular Adhesion): −1.487 Log2 fold change
  rtPCR Log2 fold change relative to untreated cells, ELK1 (Ca signaling): −3.143 Log2 fold change
  rtPCR Log2 fold change relative to untreated cells, GSK3B (Cellular Adhesion): −1.728 Log2 fold change
  rtPCR Log2 fold change relative to untreated cells, MAP1LC3A (MAP kinase): −2.006 Log2 fold change
  rtPCR Log2 fold change relative to untreated cells, MAP2K1 (MAP kinase): −2.534 Log2 fold change
  rtPCR Log2 fold change relative to untreated cells, MAPK8 (MAP kinase): −2.068 Log2 fold change
  rtPCR Log2 fold change relative to untreated cells, MITF (Drug Resistance): −4.421 Log2 fold change
  rtPCR Log2 fold change relative to untreated cells, MNT (Cell Cycle Arrest): −2.804 Log2 fold change
  rtPCR Log2 fold change relative to untreated cells, MTOR (PI3K/AKT/MTOR): −1.847 Log2 fold change
  rtPCR Log2 fold change relative to untreated cells, NOTCH1 (NOTCH): −1.949 Log2 fold change
  rtPCR Log2 fold change relative to untreated cells, PAK3 (P21) (Cell Cycle Arrest): −1.643 Log2 fold change
  rtPCR Log2 fold change relative to untreated cells, PIK3C2A (PI3K/AKT/MTOR): −1.77 Log2 fold change
  rtPCR Log2 fold change relative to untreated cells, PIK3R5 (PI3K/AKT/MTOR): −1.821 Log2 fold change
  rtPCR Log2 fold change relative to untreated cells, RAC1 (MAP kinase): −1.422 Log2 fold change
  rtPCR Log2 fold change relative to untreated cells, RASA1 (MAP kinase): −1.307 Log2 fold change
  rtPCR Log2 fold change relative to untreated cells, RASSF1 (MAP kinase): −1.813 Log2 fold change
  rtPCR Log2 fold change relative to untreated cells, ROCK1 (Cellular Adhesion): −1.213 Log2 fold change
  rtPCR Log2 fold change relative to untreated cells, SMAD2 (TGF signaling): −1.617 Log2 fold change
  rtPCR Log2 fold change relative to untreated cells, SMAD3 (TGF signaling): −2.487 Log2 fold change
  rtPCR Log2 fold change relative to untreated cells, STAT1 (JAK-STAT): −2.228 Log2 fold change
  rtPCR Log2 fold change relative to untreated cells, STAT5A (JAK-STAT): −1.559 Log2 fold change
  rtPCR Log2 fold change relative to untreated cells, SUFU (Hedgehog): −1.668 Log2 fold change
  rtPCR Log2 fold change relative to untreated cells, TAZ (HIPPO): −1.874 Log2 fold change
  rtPCR Log2 fold change relative to untreated cells, gene name not printed (Angiogenesis, row r45): −1.521 Log2 fold change
  rtPCR Log2 fold change relative to untreated cells, gene name not printed (Cell Cycle Arrest, row r42): −2.312 Log2 fold change
  rtPCR Log2 fold change relative to untreated cells, gene name not printed (Cellular Adhesion, row r57): −1.865 Log2 fold change
  rtPCR Log2 fold change relative to untreated cells, gene name not printed (HIPPO, row r33): −1.568 Log2 fold change
  rtPCR Log2 fold change relative to untreated cells, gene name not printed (PI3K/AKT/MTOR, row r20): −2.204 Log2 fold change
  rtPCR Log2 fold change relative to untreated cells, gene name not printed (PI3K/AKT/MTOR, row r22): −2.291 Log2 fold change
  rtPCR Log2 fold change relative to untreated cells, gene name not printed (Receptors, row r7): −2.51 Log2 fold change
HepG2 cells [3]
  Protein fold change, DVLD (Cellular Adhesion): 1.34 Fold change
  Protein fold change, MEK (MAP kinase/PI3K): 1.22 Fold change
  Protein fold change, MEK PO4 (MAP kinase/PI3K): 1.68 Fold change
  Protein fold change, MET PO4 (Receptor): 1.80 Fold change
  Protein fold change, PTEN PO4 (MAP kinase/PI3K): 1.40 Fold change
  Protein fold change, TEAD2 (HIPPO signaling): 1.34 Fold change
  Protein fold change, c-MYC (Apoptosis): 1.70 Fold change
  Protein fold change, p53 (Apoptosis): 1.26 Fold change

## CCCCCc1cc(O)c2c(c1)OC(C)(C)c1ccc(C)cc1-2 [CBN, Cannabinol]
HepG2 cells [2]
  rtPCR Log2 fold change relative to untreated cells, BAD (Apoptosis): −1.041 Log2 fold change
  rtPCR Log2 fold change relative to untreated cells, ELK1 (Ca signaling): −1.026 Log2 fold change
  rtPCR Log2 fold change relative to untreated cells, MAP3K (MAP kinase): 1.518 Log2 fold change
  rtPCR Log2 fold change relative to untreated cells, MAPK8 (MAP kinase): −1.284 Log2 fold change
  rtPCR Log2 fold change relative to untreated cells, NOTCH1 (NOTCH): −1.084 Log2 fold change
  rtPCR Log2 fold change relative to untreated cells, PIK3C2A (PI3K/AKT/MTOR): −1.181 Log2 fold change
  rtPCR Log2 fold change relative to untreated cells, PIK3R5 (PI3K/AKT/MTOR): −2.689 Log2 fold change
  rtPCR Log2 fold change relative to untreated cells, PPARG (Receptors): 2.204 Log2 fold change
  rtPCR Log2 fold change relative to untreated cells, SMAD3 (TGF signaling): −3.711 Log2 fold change
  rtPCR Log2 fold change relative to untreated cells, SMO (Hedgehog): 2.336 Log2 fold change
  rtPCR Log2 fold change relative to untreated cells, TAZ (HIPPO): −1.143 Log2 fold change
HepG2 cells [3]
  Protein fold change, DVLD (Cellular Adhesion): 1.66 Fold change
  Protein fold change, MEK PO4 (MAP kinase/PI3K): 1.33 Fold change
  Protein fold change, PI3K (MAP kinase/PI3K): 1.46 Fold change
  Protein fold change, TEAD2 (HIPPO signaling): 1.35 Fold change
  Protein fold change, c-MYC (Apoptosis): 1.40 Fold change
  Protein fold change, p53 (Apoptosis): 1.22 Fold change

## CCCCCc1cc(O)c(C/C=C(\C)CCC=C(C)C)c(O)c1 [Cannabigerol (CBG), Cannabigerol]
[1]
  MEI, AUC* % mass: 4.89

## C=CC(C)(O)CCC=C(C)C (centres unmarked) [Linalool]
[1]
  MEI, AUC* % mass: 0.03

## Cc1cc(=O)n(-c2ccccc2)n1C [antipyrine]
[4]
  Hepatic extraction ratio (E): 0.1

## Cc1ncc2n1-c1ccc(Cl)cc1C(c1ccccc1F)=NC2 [midazolam]
[4]
  Hepatic extraction ratio (E): 0.5

## CC1=CCC2CC1C2(C)C (stereo not drawn) [α-pinene]
[1]
  MEI, AUC* % mass: 65.77

From patent US20250285714A1, “A PHARMACEUTICAL PLATFORM TECHNOLOGY FOR DRUG DISCOVERY AND CONSUMER HEALTH PRODUCT DEVELOPMENT” (SINOVEDA CANADA INC., priority 2021, published 2025)
